This is an account of results in patent US6800659B2, “Compounds for modulating cell proliferation” (HSC Research and Development Limited Partnership, priority 2000, dated 2004).

What all share (assay type): cell-based
One data set concerns OCl-AML-3 cells. Kind of data set: In vitro purging of OCl-AML-3 acute myeloid leukemia cells. Particulars: 2.5-5 hours exposure (FIG. 17). As for the experimental part:
For the purging assay, the cells were resuspended in complete medium with or without CR4 as indicated and incubated at 37° C., 5% CO2 for 0-5 hours. Cells were then washed thoroughly with medium to remove CR4, resuspended and plated in 1 ml volumes at 5×10^3 cells/ml, in the absence of exogenous growth factors, into 35 mm petri dishes (Nunc, Gibco) containing alpha MEM (Gibco) plus 10% FCS (Cansera Rexdale, ON.) in 0.9% (vol/vol) methylcellulose (Fluka, Switzerland). Cultures were set at 37° C., 5% CO2 in a humidified atmosphere. Colonies consisting of more than 20 cells were counted at 5 days or earlier using an inverted microscope.

The test system of the next data set is OCl-LY2 lymphoma cells. Nature of the data set: Colony growth of OCl-LY2 lymphoma cells in methylcellulose culture. The conditions noted are these: colonies at 5 days (FIG. 7). On the procedure:
OCl-LY2 cells were plated in 1 ml volumes, in the absence of exogenous growth factors, into 35 mm petri dishes (Nunc, Gibco) containing IMDM (OCl, Toronto) plus 20% human cord blood plasma in 0.9% (vol/vol) methylcellulose (Fluka, Switzerland) and the indicated doses of CR4. Cultures were set at 37° C., 5% CO2 in a humidified atmosphere. Colonies consisting of more than 20 cells were counted at 5 days or earlier using an inverted microscope.

The next data set has as its system Ly-MN lymphoma cells. Nature of the data set: Colony growth of Ly-MN lymphoma cells in methylcellulose culture. Particulars: colonies at 5 days (FIG. 5). On the procedure: Ly-MN cells were plated in 1 ml volumes, in the absence of exogenous growth factors, into 35 mm petri dishes (Nunc, Gibco) containing IMDM (OCl, Toronto) plus 20% human cord blood plasma in 0.9% (vol/vol) methylcellulose (Fluka, Switzerland) and the indicated concentrations of CR4. Cultures were set at 37° C., 5% CO2 in a humidified atmosphere. Colonies consisting of more than 20 cells were counted at 5 days or earlier using an inverted microscope.

For the next data set, the system named is normal bone marrow cells. Nature of the data set: CFU-GEMM assay: normal bone marrow differentiation in culture. As for the experimental part: (§1) The CFU-GEMM assay was performed according to Fauser and Messner (1978, Blood, 52(6) 143-8) and Messner and Fausser (1980, Blut, 41(5) 327-33) with some variations. In brief, heparinized bone marrow cells were layered over Percoll (1.077 gm/ml) (Pharmacia Fine Chemical, Piscataway N.J.) and centrifuged at 400 g at 4° C. for 10 minutes to remove neutrophils and RBCs. The fractionated BM cells at 2×10^5 cells/ml were cultured in IMDM (OCl, Toronto) containing 0.9% (vol/vol) methylcellulose supplemented with 30% FCS (Cansera Rexdale, ON.) or normal human plasma, a cocktail of cytokines containing G-CSF (10 ng/ml, Amgen), IL-3 (40 U/ml, Immunex), MGF (50 ng/ml, Immunex), Erythropoietin (2 u/ml, Epprex) or TPO (10 ng/ml, Amgen), 5×10^−5M β-2-mercaptoethanol and the specified concentration of CR4. The culture mixture was plated in 1 ml volumes into 35 mm petri dishes and incubated at 37° C., 5% CO2 in a humidified atmosphere. All cultures were evaluated at 14 days for the number of BFU-E colonies (defined as aggregates of more than 500 hemoglobinized cells or, 3 or more erythroid subcolonies), OFU-GM colonies (defined as granulocyte or monocyte-macrophage cells or both), CFU-Meg colonies (comprising 4 or more megakaryocytes) and CFU-GEMM colonies (a mixed population comprising of all elements).
as §1, with “1243-8)” for “143-8)”, “concentrations” for “concentration”, “CR19.” for “CR4.”, “hemaglobinized” for “hemoglobinized”, “subcolonies) and CFU-C” for “subcolonies), OFU-GM”, “both).” for “both), CFU-Meg colonies (comprising 4 or more megakaryocytes) and CFU-GEMM colonies (a mixed population comprising of all elements).”
as §1, with “1243-8)” for “143-8)”, “variations (British Journal of Haematology, 1992, 80, p40-48).” for “variations.”, “test compound.” for “CR4.”, “CO2,” for “CO2”, “subcolonies) and CFU-C” for “subcolonies), OFU-GM”, “both).” for “both), CFU-Meg colonies (comprising 4 or more megakaryocytes) and CFU-GEMM colonies (a mixed population comprising of all elements).”

The structures appear in SMILES notation.

As to `N#C/C(=C\C=C\c1ccc(O)c(O)c1)C(=O)NCc1ccccc1` [CR4, (E,E)-2-(benzylaminocarbonyl)-3-(3,4-dihydroxystyryl)acrylonitrile], the “killing of OCl-AML-3 cells” value in the data set on OCl-AML-3 cells (25 μM) and in the data set on OCl-AML-3 cells (50 μM) was “significant killing” each time. For the same compound, in the data set with OCl-LY2 lymphoma cells (120 h, 2.5 μM, read-out: inhibition of cell proliferation and survival), the inhibition at 2.5 µM is 90%. Further, the results for the “inhibition of cell proliferation and survival” value with OCl-LY2 lymphoma cells (high nanomolar to low micromolar doses), in the data set on Ly-MN lymphoma cells (by 2.5 μM) and in the data set on Ly-MN lymphoma cells (nanomolar doses) were “significantly inhibited”, “inhibition” and “significantly inhibited”, respectively. Further, in the data set with normal bone marrow cells (10 μM, 14 days (FIG. 1)), the CFU-GM colony numbers result is reported as “significantly stimulated”. The “inhibition of BFU-E colony formation” value in the data set with normal bone marrow cells (10 μM, 14 days (FIG. 1)) is recorded as “some inhibition”. The “effect upon normal cell survival” value in the data set on normal bone marrow cells (at concentrations equivalent to those inhibiting AML-3 cells: 300-600 nM) is reported as “no effect”. Further, the “effect upon normal cells” value with normal bone marrow cells (at concentrations equivalent to those inhibiting HuNS1 cells: high nanomolar to low micromolar (2.5 μM)), in the data set with normal bone marrow cells (at concentrations equivalent to those inhibiting Ly-MN cells: nanomolar doses to 2.5 μM), in the data set on normal bone marrow cells (at concentrations equivalent to those inhibiting OCl-LY2 cells: high nanomolar to low micromolar (2.5 μM)), with normal bone marrow cells (at concentrations equivalent to those inhibiting Ph+ ALL cells: low nanomolar doses (35-100)) and with normal bone marrow cells (at concentrations equivalent to those inhibiting Z119 cells: low nanomolar doses) was “no effect” in each case. In the data set on normal bone marrow cells (doses up to 5 μM, colonies at 14 days (FIG. 1)), the “toxicity upon normal bone marrow” value is given as “negligible toxicity”. Also, in the data set on normal bone marrow cells (low nanomolar doses, long term exposure), the “normal cell growth and differentiation” value is “unaffected”. For the same compound, the “toxicity to normal cells incubated with compound” value in the data set with normal bone marrow cells (until concentrations of 10-20 μM or greater were achieved) is listed as “minimal toxicity”.
